Measured values published in patent US20120164242A1, “NOVEL METHODS FOR MODULATING MELANIN PRODUCTION” (priority 2010, published 2012).

System: melanogenesis related genes
Test: RT-PCR mRNA level of melanogenesis related genes in B16-F10 cells
Assay type: cell-based, mouse
Conditions: 100 μM, three days
Protocol: To determine whether THSG had similar effects as the PMT extract on the induction of melanin related gene expression, B16-F10 cells were cultured in medium containing PMT extract (10 μg/mL), THSG (10 μg/mL), naringenin (100 μM) for three days and RT-PCR was performed to analyze melanin biosynthesis related gene expression using the protocol as described in Example 4 above.

## O=C1C[C@@H](c2ccc(O)cc2)Oc2cc(O)cc(O)c21 [naringenin]
  mRNA level of melanogenesis related genes: no increase
